Tested on: 266295-075-R-J1-PDC spheroid viability
Experiment: Anticancer human tumor 266295-075-R-J1-PDC patient-derived head and neck squamous carcinoma cell line growth inhibition [POLQ]
Conditions: spheroids with HUVEC and MSC; for IC50: curve of first compound; for viability, T/C: stronger effect = lower value
Description: Multicellular complex tumor spheroid response to Polymerase (POL) inhibitors (novobiocin, ART-558, RP6685) in combination with a variety of drugs and investigational agents in selected tumor cell lines
The POL inhibitors (novobiocin, ART-558, and RP6685) were evaluated both individually and in combination with standard of care and investigational anticancer small molecules within a complex spheroid model of solid tumors. . Complex spheroids include a stromal component modeled by human endothelial cells (HUVEC) and fibroblasts modeled by human mesenchymal stem cells (MSCs). The concentration ranges selected for each drug and investigational agent were based upon clinically achievable concentrations if the clinical Cmax of the agent was known.
Compounds. The drugs and investigational agents: novobiocin (NSC847541), ART-558 (NSC835418), RP-6685 (NSC848927), peposertib (NSC802822), ceralasertib (NSC780249), elimusertib (NSC800525), camonsertib (NSC841442), AZD-1390 (NSC803789), olaparib (NSC753686), talazoparib (NSC767125), rucaparib (NSC756644), sotorasib (NSC818433), MRTX-1133 (NSC836407), SN-38 (NSC673596), topotecan (NSC609699), epotoside (NSC141540), doxorubicin (NSC123127), gemcitabine (NSC613327), 5-fluorouracil (NSC19893), paclitaxel (NSC125973), vemurafenib (NSC761431), MSA-2 (NSC828583), SN-011 (NSC837082), adavosertib (NSC754352), prexasertib (NSC758257), carboplatin (NSC241240) and oxaliplatin (NSC266046), were obtained from the National Cancer Institute (NCI) Developmental Therapeutics Program Chemical Repository (21). The FDA-approved anticancer drug set is available from the Developmental Therapeutics Program at https://dtp.cancer.gov/organization/dscb/obtaining/. […] The stock solutions were prepared in dimethyl sulfoxide (DMSO, Sigma-Aldrich, St. Louis, MO, cat. D2650), except for the platinum compounds which were prepared in saline (Quality Biological, Gaithersburg, MD, cat. 114-055-101), at 800-fold the tested concentration and stored at -70 degrees C prior to their use. All drugs and investigational agents were tested over a range starting from a high concentration at or near the clinical Cmax and decreasing in half-log increments. If the clinical Cmax for an agent had not been determined, the highest concentration tested was 10 microM, except for SN-38, which was tested at a high concentration of 1 microM.
Cell Culture. All cells were maintained in an incubator at 37 degrees C and 5% CO2 with 95% humidity. The PDC lines were cultured according to standard operating procedures established by the NCI PDMR (https://pdmr.cancer.gov). Table 3 of the manuscript, lists the cell lines along with the number of the three cell types plated to form the mct-spheroids and media for tumor cell growth. After thawing, all PDC lines, except 997537-175-T-J1-PDC and 415267-285-R-J2-PDC, were cultured in Matrigel-coated flasks prepared with a working solution of 1X Ham's F-12 nutrient mix, without supplementation (Thermo Fisher Scientific, cat. 11765054), 100 U/mL penicillin-streptomycin (Thermo Fisher Scientific, cat. 15140122), and 2.5% Matrigel (Corning Inc., Corning, NY, cat. 354248) for the first three passages. The two PDC lines 997537-175-T-J1-PDC and 415267-285-R-J2-PDC were cultured on uncoated flasks. The 857933-349-R-J2-PDC line was cultured in 6C/Colon 1B media containing advanced DMEM/F-12 (Thermo Fisher Scientific, cat. 12634028), 10 mM HEPES (Thermo Fisher Scientific, cat. 15630080), 1X GlutaMAX supplement (Thermo Fisher Scientific, cat. 35050061), 0.1 mg/mL primocin (InvivoGen, San Diego, CA, cat. ant-pm-2), 10% defined fetal bovine serum, heat inactivated (HyClone Laboratories Inc., Logan, UT, cat. SH30070.03HI), 50% L-WRN conditioned media (ATCC, cat. CRL-3276), 1.25 mM N-Acetyl-L-cysteine (Sigma-Aldrich, cat. A9165), 10 mM nicotinamide (Sigma-Aldrich, cat. N0636), 1X B-27 supplement (Thermo Fisher Scientific, cat. 17504044), 1X N-2 supplement (Thermo Fisher Scientific, cat. […]

[1] = second compound 0.0316 µM, first compound 0.0316 µM
[2] = second compound 0.0316 µM, first compound 0.1 µM
[3] = second compound 0.0316 µM, first compound 0.316 µM
[4] = second compound 0.0316 µM, first compound 1 µM
[5] = second compound 0.0316 µM, first compound 3.16 µM
[6] = second compound 0.0316 µM, first compound 10 µM
[7] = second compound 0.1 µM, first compound 0.0316 µM
[8] = second compound 0.1 µM, first compound 0.1 µM
[9] = second compound 0.1 µM, first compound 0.316 µM
[10] = second compound 0.1 µM, first compound 1 µM
[11] = second compound 0.1 µM, first compound 3.16 µM
[12] = second compound 0.1 µM, first compound 10 µM
[13] = second compound 0.316 µM, first compound 0.0316 µM
[14] = second compound 0.316 µM, first compound 0.1 µM
[15] = second compound 0.316 µM, first compound 0.316 µM
[16] = second compound 0.316 µM, first compound 1 µM
[17] = second compound 0.316 µM, first compound 3.16 µM
[18] = second compound 0.316 µM, first compound 10 µM
[19] = second compound 1 µM, first compound 0.0316 µM
[20] = second compound 1 µM, first compound 0.1 µM
[21] = second compound 1 µM, first compound 0.316 µM
[22] = second compound 1 µM, first compound 1 µM
[23] = second compound 1 µM, first compound 3.16 µM
[24] = second compound 1 µM, first compound 10 µM
[25] = second compound 3.16 µM, first compound 0.0316 µM
[26] = second compound 3.16 µM, first compound 0.1 µM
[27] = second compound 3.16 µM, first compound 0.316 µM
[28] = second compound 3.16 µM, first compound 1 µM
[29] = second compound 3.16 µM, first compound 3.16 µM
[30] = second compound 3.16 µM, first compound 10 µM
[31] = second compound 10 µM, first compound 0.0316 µM
[32] = second compound 10 µM, first compound 0.1 µM
[33] = second compound 10 µM, first compound 0.316 µM
[34] = second compound 10 µM, first compound 1 µM
[35] = second compound 10 µM, first compound 3.16 µM
[36] = second compound 10 µM, first compound 10 µM
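Also: spheroids exposed to compounds for seven days before readout.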

COc1cc(C2c3cc4c(cc3C(OC3OC5COC(C)OC5C(O)C3O)C3COC(=O)C23)OCO4)cc(OC)c1O (centres undefined) + COC1C(OC(N)=O)C(O)C(Oc2ccc3c(O)c(NC(=O)c4ccc(O)c(CC=C(C)C)c4)c(=O)oc3c2C)OC1(C)C gave an IC50 (second compound 0.0316 µM) of over 10 µM, an IC50 (second compound 0.1 µM) of over 10 µM and an IC50 (second compound 0.316 µM) of over 10 µM. The IC50 (second compound 1 µM) was over 10 µM, the IC50 (second compound 3.16 µM) was over 10 µM and the IC50 (second compound 10 µM) was over 10 µM. For the same molecule, the viability, T/C [1] was 81.4%, the viability, T/C [2] was 118% and the viability, T/C [3] was 93.5%. It also gave a viability, T/C [4] of 89.6%, a viability, T/C [5] of 89.1% and a viability, T/C [6] of 76.9%. It also gave a viability, T/C [7] of 88.7%, a viability, T/C [8] of 105% and a viability, T/C [9] of 110%. It also gave a viability, T/C [10] of 83.2%, a viability, T/C [11] of 85.1% and a viability, T/C [12] of 77.4%. For the same molecule, the viability, T/C [13] was 90.1%, the viability, T/C [14] was 98.5% and the viability, T/C [15] was 89.8%. For the same molecule, the viability, T/C [16] was 87%, the viability, T/C [17] was 83.3% and the viability, T/C [18] was 82%. The viability, T/C [19] was 101%, the viability, T/C [20] was 92.1% and the viability, T/C [21] was 86.3%. For the same molecule, the viability, T/C [22] was 96.9%, the viability, T/C [23] was 91.1% and the viability, T/C [24] was 72.2%. The viability, T/C [25] was 102%, the viability, T/C [26] was 91.2% and the viability, T/C [27] was 114%. It also gave a viability, T/C [28] of 94.7%, a viability, T/C [29] of 99% and a viability, T/C [30] of 83%. For the same molecule, the viability, T/C [31] was 116%, the viability, T/C [32] was 116% and the viability, T/C [33] was 120%. The viability, T/C [34] was 92.4%, the viability, T/C [35] was 110% and the viability, T/C [36] was 80.5%.
In the case of O=C(c1cc(Cc2n[nH]c(=O)c3ccccc23)ccc1F)N1CCN(C(=O)C2CC2)CC1 + COC1C(OC(N)=O)C(O)C(Oc2ccc3c(O)c(NC(=O)c4ccc(O)c(CC=C(C)C)c4)c(=O)oc3c2C)OC1(C)C, the IC50 (second compound 0.0316 µM) is reported as over 10 µM, the IC50 (second compound 0.1 µM) is reported as over 10 µM and the IC50 (second compound 0.316 µM) is reported as over 10 µM. The IC50 (second compound 1 µM) was over 10 µM, the IC50 (second compound 3.16 µM) was over 10 µM and the IC50 (second compound 10 µM) was over 10 µM. The viability, T/C [1] was 84.6%, the viability, T/C [2] was 107% and the viability, T/C [3] was 84.8%. It also gave a viability, T/C [4] of 110%, a viability, T/C [5] of 87.7% and a viability, T/C [6] of 97.9%. It also gave a viability, T/C [7] of 89.2%, a viability, T/C [8] of 114% and a viability, T/C [9] of 89.9%. It also gave a viability, T/C [10] of 93.7%, a viability, T/C [11] of 98.6% and a viability, T/C [12] of 84.6%. It also gave a viability, T/C [13] of 101%, a viability, T/C [14] of 99.8% and a viability, T/C [15] of 88.9%. For the same molecule, the viability, T/C [16] was 99.8%, the viability, T/C [17] was 93.6% and the viability, T/C [18] was 80%. For the same molecule, the viability, T/C [19] was 98.1%, the viability, T/C [20] was 89.8% and the viability, T/C [21] was 88.1%. It also gave a viability, T/C [22] of 82.3%, a viability, T/C [23] of 83.5% and a viability, T/C [24] of 90.9%. For the same molecule, the viability, T/C [25] was 96.6%, the viability, T/C [26] was 103% and the viability, T/C [27] was 104%. It also gave a viability, T/C [28] of 83.8%, a viability, T/C [29] of 100% and a viability, T/C [30] of 102%. For the same molecule, the viability, T/C [31] was 106%, the viability, T/C [32] was 89.7% and the viability, T/C [33] was 90.8%. The viability, T/C [34] was 89.4%, the viability, T/C [35] was 112% and the viability, T/C [36] was 81.4%.

Source: PubChem BioAssay AID1963853 (Molecular Pharmacology Branch, DTP, NCI, 2024)
